Tests used:
HER-2/neu mRNA = experiment: Northern blotting for HER-2/neu mRNA in 184B5/HER cells; assay type: cell-based, human; settings: 25 μM ciglitazone or 20 μM 15-d-PGJ2
Procedure: Northern blotting was performed to evaluate whether PPARγ ligands decrease levels of HER-2/neu mRNA. 184B5/HER cells were treated with vehicle (0.01% dimethyl sulfoxide), 25 μM ciglitazone or 20 μM 15-d-PGJ2. Total cellular RNA was isolated from cell monolayers using an RNA isolation kit from Qiagen Inc. 10 μg of RNA was added to each lane. The 10 μg of total cellular RNA per lane were electrophoresed in a formaldehyde-containing 1.2% agarose gel and transferred to nylon-supported membranes. The blot was hybridized with probes that recognized HER-2/neu mRNA (Santa Cruz Biotechnology, Inc., Santa Cruz, Calif.) and 18S rRNA cDNA (Ambion, Inc., Austin, Tex.).

[1] = test system: EGFR in 184B5 mammary epithelial cells; experiment: immunoblot for EGFR in 184B5 cells; assay type: cell-based, human; settings: ciglitazone 5-30 μM or 15-d-PGJ2 5, 10 μM, 24 hours
Procedure: The cells used were 184B5 cells. The 184B5 cell line was obtained from a collaborator and is an immortalized but non-tumorigenic human breast epithelial cell line that was established from a reduction mammaplasty and is described in Stampler, M. R, et al, Proc. Natl. Acad. Sci. USA 82, 2394-2398 (1985).
184B5 cells were maintained in MEM-KBM mixed in a ratio of 1:1 (basal medium) containing epidermal growth factor (10 ng/ml), hydrocortisone (0.5 μg/ml), transferrin (10 μg/ml), gentamicin (5 μg/ml), and insulin (10 μg/ml) (growth medium). 184B5 cells were grown to 60% confluence, trypsinized with 0.05% trypsin-2 mM ethylenediaminotetraacetic acid and plated for experimental use.
184B5 cells were treated with vehicle (0.01% dimethyl sulfoxide), ciglitazone (5, 10, 20, 30 μM) or 15-d-PGJ2 (5, 10 μM) for 24 hours. Cell lysates were prepared in RIPA buffer. Lysates were sonicated for 20 seconds on ice and centrifuged at 10,000×g for 10 minutes to sediment the particulate material. The protein concentration of the supernatant was measured by the method of Lowry,. O. H., et al, J. Biol. Chem. 193, 265-275 (1951). Cellular lysate protein (100 μg/lane) was loaded onto a 10% SDS-polyacrylamide gel, electrophoresed and subsequently transferred onto a nitrocellulose membrane(Schleicher & Schuell Keene, N. H.). […]

EGFR promoter = experiment: transient transfection assay, human EGFR promoter construct ligated to luciferase, 184B5 cells; assay type: cell-based; settings: 0-25 μM, 24 hours, FIG. 2
Procedure: To determine whether PPARγ ligands inhibit EGFR promoter activity, a transient transfection assay was performed, 184B5 cells were transfected with 1.8 μg of a human EGFR promoter construct ligated luciferase (-1100/-19) and 0.2 μg pSVβgal (Promega Corp., Madison, Wis.). The EGFR promoter is described in Hudson, L. G., et al, Cell 62, 1165-1175 (1990), the whole of which is incorporated herein by reference. 184B5 cells were seeded at a density of 5×10^4 cells/well in 6-well dishes and grown to 50-60% confluence. For each well 2 μg of […] DNA were introduced into cells using 8 μg of LIPOFECTAMINE (Life Technologies, Inc., Grand Island, N.Y.) as per the manufacturers instructions. Following transfection, the cells were treated with ciglitazone (0, 5, 10, 15, 20 and 25 μM) or 15-d-PGJ2 (0, 5, 10, 15, 20, and 25 μM) for 24 hours. The activities of luciferase and β-galactosidase were measured in cellular extract as described in Mestre, J. R, et al, Cancer Res. 57, 1081-1085 (1997). The results are shown in FIG. 2 where luciferase activity represents data that have been normalized to β-galactosidase activity (columns, means; bars, S. D., n=6; * means p<0.01 compared to control).

[2] = test system: HER-2/neu positive breast cancer metastasized to lung and liver; experiment: Example III: breast cancer metastasized to lung and liver; assay type: in vivo, human; settings: patient, oral 5 mg/kg twice daily
Procedure: After three months, the PPARγ ligand administration is continued in combination regimen with Taxol® at a dose of 175 mg/m^2 administered intravenously every three weeks.

[3] = test system: HER-2/neu positive breast cancer metastasized to bone; experiment: Example IV: breast cancer metastasized to bone; assay type: in vivo, human; settings: patient after failure of prior chemotherapy, oral 5 mg/kg twice daily plus HERCEPTIN
Procedure: After 90 days, oral cyclophosphamide at a dose of 3 mg/kg/day and doxorubicin administered intravenously weekly at a dose of 20 mg/m^2, are added to the drug regimen.

[4] = test system: EGFR positive breast cancer; experiment: Example IX: adjuvant therapy after mastectomy; assay type: in vivo, human; settings: patient, oral 5 mg/kg twice daily for five years after mastectomy

Structure (SMILES): CC1(COc2ccc(CC3SC(=O)NC3=O)cc2)CCCCC1 (stereo not drawn) [ciglitazone]
- amounts of HER-2/neu mRNA (Northern blot) (HER-2/neu mRNA): decrease amounts of HER-2/neu mRNA
- amounts of EGFR (immunoblot) [1]: decreased amounts of EGFR
- EGFR promoter activity (luciferase normalized to β-galactosidase) (EGFR promoter): inhibited EGFR promoter activity in a dose-dependent fashion
- tumor burden [2]: reduced tumor burden
- tumor burden [3]: reduced tumor burden
- recurrence of breast cancer [4]: Recurrence of breast cancer dose not occur

From patent US6291496A, “Treating cancers associated with overexpression of class I family of receptor tyrosine kinases” (priority 1999, dated 2001)
